Measured values as given in paper PMC3404986, “Pyridoxal 5′-Phosphate Is a Slow Tight Binding Inhibitor of E. coli Pyridoxal Kinase” (PLoS ONE, 2012).

Legend:
[1] = biological target: T1, ePL kinase (E. coli pyridoxal kinase 1, PL kinase1) (Escherichia coli, UniProt P40191); experiment: size-exclusion chromatography, then coupled enzymatic ADP assay of denatured complex; type: binding; details: complex from PLP 0.5 mM + MgADP 1 mM + MgCl2 0.5 mM, pH 7.5, 37°C, 1 h; ternary complex with PLP
T1 construct: gene pdxK; full length, recombinant from E. coli; wild type untagged (as previously described); K229Q His-tagged (C-terminus; pET28a NdeI/EcoRI)
Text: size-exclusion chromatography, then coupled enzymatic ADP assay of denatured complex on ePL kinase (E. coli pyridoxal kinase 1, PL kinase1)

[2] = biological target: T1, ePL kinase (E. coli pyridoxal kinase 1, PL kinase1); experiment: Sephadex G-50 spin column, absorbance of bound PLP at […] nm; details: PLP without nucleotide, 0.2 mM MgCl2, pH 7.5, 37°C; slow tight binding inhibitor; covalent, reversible aldimine, K229 suggested
[3] = biological target: T1, ePL kinase (E. coli pyridoxal kinase 1, PL kinase1); experiment: CD at […] nm, bound PLP removed by PLP phosphatase; type: binding; details: complex formed from PL + MgATP; 10 µM PLP phosphatase as trap, pH 7.5, 37°C; covalent, reversible aldimine; only part of the PLP released

| SMILES | %ADP [1] [%] | Rate of complex formation [2] [min⁻¹] | rate of dissociation [3] [min⁻¹] |
| --- | --- | --- | --- |
| Nc1ncnc2c1ncn2[C@@H]1O[C@H](COP(=O)(O)OP(=O)(O)O)[C@@H](O)[C@H]1O [MgADP] | 43 | – | – |
| Cc1ncc(COP(=O)(O)O)c(C=O)c1O [PLP] | – | 0.16 | 0.012 |
